How the values were obtained:
[1] = system: DNFB-induced mouse DTH response; assay: DNFB-induced mouse delayed type hypersensitivity response (DTH); assay type: in vivo; details: for Body weight after i.p.: control 21.9; for Body weight before i.p.: control 22.4; for Ear swelling X ± SD: control 22.7 ± 2.1
Procedure: Female Balb/c mice (age of 6-8 wk) were randomly divided into groups and immunized with 20 μl 0.5% DNFB solution in absolute acetone-olive oil (4:1) on each hind foot on day 0 and 1;
7-9 days after the initial immunization, mice were boosted with 10 μl 0.4% DNFB on both sides of the left ear, whereas the right ear was treated with vehicle alone;
Compounds were administered intraperitoneally (i.p.) or orally (p.o.) to the mice 1 h before DNFB booster immunization and 12 h later.
Ear swelling and other indexes were assessed 24-48 h after booster immunization.
Note: Female ICR mice (age of 6-8 wk) were immunized with 0.7% DNFB solution and boosted with 0.6% DNFB solution.

rat adjuvant arthritis = assay: Rat adjuvant arthritis (AA), therapeutic effect; assay type: in vivo; details: i.p. for 14 days from day 19; especially at 2 mg/Kg/d
Procedure: Rats were immunized on day 0 by intradermal injection of Complete Freund's adjuvant (CFA), containing 10 mg heat-inactivated BCG in 1 ml paraffin oil, into the left hind paw in 0.1 ml for each rat. Inflammatory polyarthritis was induced in all immunized rats. Swelling in left paw and polyarthritic symptoms were seen from day 1, lasted for 4 days, and then diminished. Swelling in the same paw occurred again from day 8, reached the peak at day 16. The secondary symptoms, including the right hind paw swelling and polyarthritis, were seen from day 12. The polyarthritis severity was graded on a scale of 0-4: 0=no swelling; 1=isolated phalanx joint involvement; 2=involvement of phalanx joint and digits; 3=involvement of the entire region down to the ankle; 4=involvement of entire paw, including ankle.
Right hind paw volume was determined before immunization (basic value, day 0) and repeated every 3 days. Animals were sacrificed on day 15, and thymus and spleen were harvested for thymus and spleen index assessment. Result: The secondary symptoms were established when the right hind paw severely swelled 19 days after adjuvant injection. […] Comparing with AA model rat, LLDT-8 treatment, especially at dose of 2 mg/Kg/d, markedly withdrew the symptoms (FIG. 16 and FIG. 17).

[2] = system: HL-60 (human myeloblastic); assay: Tumor cell proliferation, HL-60; assay type: cell-based; details: read-out: Inhibitory effect on tumor cell proliferation IC50
[3] = system: A-549 (human lung carcinoma); assay: Tumor cell proliferation, A-549; assay type: cell-based; details: read-out: Inhibitory effect on tumor cell proliferation IC50
[4] = system: MKN-28 (human gastric cancer); assay: Tumor cell proliferation, MKN-28; assay type: cell-based; details: read-out: Inhibitory effect on tumor cell proliferation IC50
[5] = system: SGC-7901 (human gastric adenocarcinoma cell); assay: Tumor cell proliferation, SGC-7901; assay type: cell-based; details: read-out: Inhibitory effect on tumor cell proliferation IC50
[6] = system: BEL-7402 (human hepatic carcinoma cell); assay: Tumor cell proliferation, BEL-7402; assay type: cell-based; details: read-out: Inhibitory effect on tumor cell proliferation IC50
mice = assay: Acute toxicity (LD50) test in mice, oral; assay type: in vivo, mouse; details: single oral administration
Procedure: Mice were single administered with LLDT-8 by oral, and observed for clinical signs of toxicity immediately and the following 14 days. Necropsy was performed on all animals that died and on all survivors at the end of the 2-week study. Death was seen from the next day after treatment and reached a peak at the 2-3 day. […] There was no gender difference in survival.

[7] = Table 8, i.p., Balb/c mice, dosage 0.4 (mg/kg)
[8] = Table 8, i.p., Balb/c mice, dosage 4 (mg/kg)
[9] = Table 8, i.p., Balb/c mice, dosage 40 (mg/kg)

SMILES: CC(C)[C@]12O[C@H]1[C@@H]1O[C@]13[C@]1(O[C@H]1C[C@@]1(O)C4=C(CC[C@]31C)C(=O)OC4)[C@@H]2O [LLDT-8, (5R)-5-hydroxytriptolide]
- Left ear ([1]; Table 7, i.p. at low dosages, Balb/c mice, dosage 200 (mg/kg), control 49.6): 44.3 mg
- Body weight after i.p. [1, 7]: 22.6 g
- Body weight before i.p. [1, 7]: 22.3 g
- Ear swelling X ± SD [1, 7]: 17.7 ± 4.7 mg
- Right ear ([1]; Table 8, i.p., Balb/c mice, dosage 0.4 (mg/kg), control 26.4): 29.2 mg
- Left ear ([1]; Table 8, i.p., Balb/c mice, dosage 0.4 (mg/kg), control 49.1): 47.0 mg
- Spleen ([1]; Table 8, i.p., Balb/c mice, dosage 0.4 (mg/kg), control 154.0): 164.2 mg
- Body weight after i.p. [1, 8]: 21.8 g
- Body weight before i.p. [1, 8]: 21.4 g
- Ear swelling X ± SD [1, 8]: 15.3 ± 4.7 mg
- Right ear ([1]; Table 8, i.p., Balb/c mice, dosage 4 (mg/kg), control 26.4): 26.8 mg
- Left ear ([1]; Table 8, i.p., Balb/c mice, dosage 4 (mg/kg), control 49.1): 42.1 mg
- Spleen ([1]; Table 8, i.p., Balb/c mice, dosage 4 (mg/kg), control 154.0): 163.3 mg
- Body weight after i.p. [1, 9]: 21.4 g
- Body weight before i.p. [1, 9]: 21.6 g
- Ear swelling X ± SD [1, 9]: 17.1 ± 4.9 mg
- Right ear ([1]; Table 8, i.p., Balb/c mice, dosage 40 (mg/kg), control 26.4): 29.6 mg
- Left ear ([1]; Table 8, i.p., Balb/c mice, dosage 40 (mg/kg), control 49.1): 46.7 mg
- Spleen ([1]; Table 8, i.p., Balb/c mice, dosage 40 (mg/kg), control 154.0): 168.5 mg
- Body weight after (i.p.) ([1]; Table 9, p.o., Balb/c mice, dosage 1 mg/kg/d for 2 days, control 19): 21/21 g
- Body weight before (i.p.) ([1]; Table 9, p.o., Balb/c mice, dosage 1 mg/kg/d for 2 days, control 20): 21/21 g
- Ear swelling ([1]; Table 9, p.o., Balb/c mice, dosage 1 mg/kg/d for 2 days, control 23.4): 13.1 mg
- Right ear ([1]; Table 9, p.o., Balb/c mice, dosage 1 mg/kg/d for 2 days, control 25.9): 27.3 mg
- Left ear ([1]; Table 9, p.o., Balb/c mice, dosage 1 mg/kg/d for 2 days, control 49.3): 40.4 mg
- Spleen ([1]; Table 9, p.o., Balb/c mice, dosage 1 mg/kg/d for 2 days, control 125.8): 124.4 mg
- Right ear ([1]; Table 10, p.o., ICR mice, dosage 0.04 mg/kg, control 33.7): 35.2 mg
- Ear swelling ([1]; Table 10, p.o., ICR mice, dosage 0.04 mg/kg, control 41.5): 33.8 mg
- Left ear ([1]; Table 10, p.o., ICR mice, dosage 0.04 mg/kg, control 75.2): 69.0 mg
- Right ear ([1]; Table 10, p.o., ICR mice, dosage 0.2 mg/kg, control 33.7): 38.2 mg
- Ear swelling ([1]; Table 10, p.o., ICR mice, dosage 0.2 mg/kg, control 41.5): 30.0 mg
- Left ear ([1]; Table 10, p.o., ICR mice, dosage 0.2 mg/kg, control 75.2): 68.2 mg
- Right ear ([1]; Table 10, p.o., ICR mice, dosage 1 mg/kg, control 33.7): 39.4 mg
- Ear swelling ([1]; Table 10, p.o., ICR mice, dosage 1 mg/kg, control 41.5): 24.1 mg
- Left ear ([1]; Table 10, p.o., ICR mice, dosage 1 mg/kg, control 75.2): 63.5 mg
- polyarthritic symptoms (therapeutic) (rat adjuvant arthritis): effectively cured the polyarthritic symptoms
- IC50 [2]: 81 nM
- IC50 [3]: 32 nM
- IC50 [4]: 390 nM
- IC50 [5]: 43 nM
- IC50 [6]: 85 nM
- LD50 95% confidence limits (mice; mice): 5.4 to 8.4 mg/kg
- LD50 (mice; mice, 14 days, Bliss' method): 6.8 mg/kg
- gross pathology (hemorrhage) (mice): Obvious hemorrhage was seen at pylorus, duodenum, jejunum and ileum
- pathological changes in tissues by gross necropsy in survivors at day 15 (mice): No significant pathological changes

— patent US7626044B2, “Triptolide derivatives and their uses” (priority 2002, dated 2009)
